Measured values reported in article PMC11995831, “Synthesis of Novel Isoindolinones: Carbonic Anhydrase Inhibition Profiles, Antioxidant Potential, Antimicrobial Effect, Cytotoxicity and Anticancer Activity” (Journal of Biochemical and Molecular Toxicology, 2025).
≈ marks a conversion by molar mass, not a printed value. Entries after “also recorded” stand apart in the source; their conditions may differ.

Legend:
[1] = test system: Yarrowia lipolytica ATCC 20460; assay: Disc diffusion, Yarrowia lipolytica
[2] = test system: Candida albicans ATCC 10231; assay: Disc diffusion, Candida albicans
L929 cells = assay: Cytotoxicity, WST-1 assay in L929 cells; type: cell-based; conditions: WST-1, 24 h exposure, 6.25-500 μg/ml
[3] = test system: Klebsiella pneumoniae ATCC 13883; assay: Disc diffusion, Klebsiella pneumoniae; conditions: for zone of inhibition at 1000 µg/mL: ATCC13883, 24 h, read-out: inhibitory zone diameter, B4 Klebsiella pneumonia
[4] = test system: Staphylococcus aureus ATCC 25923; assay: Disc diffusion, Staphylococcus aureus; conditions: for zone of inhibition at 1000 µg/mL: ATCC25923, 24 h, read-out: inhibitory zone diameter, B2 Staphylococcus aureus
hCA I = hCA I (Homo sapiens, UniProt P00915); assay: hCA I inhibition assay (esterase activity); type: biochemical; conditions: human erythrocyte hCA I
hCA II = hCA II (Homo sapiens, UniProt P00918); assay: hCA II inhibition assay (esterase activity); type: biochemical; conditions: for IC50 / Ki: human erythrocyte hCA II, esterase activity
[5] = ABTS radical cation scavenging assay; conditions: for IC50 ABTS method: ABTS radical scavenging; for antioxidant activity (in words): ABTS scavenging and Fe reduction, compared to BHT, BHA, α-tocopherol; for ABTS radical scavenging (λ734): absorbance at 734 nm, 30 μg/mL concentration
Procedure: Antioxidant capacity was determined using the ABTS radical cation scavenging method ABTS and potassium persulfate (K2S2O8) were mixed in equal proportions and incubated at room temperature to generate the radical cation. The resulting solution was diluted with ethanol, and the absorbance of the control was adjusted to 0.928 ± 0.025 at 734 nm. Different concentrations of the compounds were prepared, added to test tubes, and adjusted with 0.2 mL of ethanol. To each tube, 0.8 mL of the ABTS radical solution was added. After incubation for 30 min, the absorbance of the remaining ABTS^•+ was measured at 734 nm.

[6] = test system: Escherichia coli ATCC 43895; assay: Disc diffusion, Escherichia coli; type: cell-based; conditions: read-out: inhibitory zone diameter, B3 Escherichia coli; for zone of inhibition at 1000 µg/mL: ATCC43895, compounds at 1000 μg/mL, disc diameter 5 mm, 24 h
Procedure: All tests were conducted in triplicate.

[7] = Fe3+ reducing power assay (FRAP method); conditions: absorbance at 700 nm, 30 μg/mL concentration
Procedure: The ability of the carbamate compounds to reduce was evaluated using the FRAP assay. Various concentrations of the compounds were dissolved in deionized water to a final volume of 0.2 mL in test tubes. To each tube, 500 µL of potassium […] [K3Fe(CN)6] and 500 µL of phosphate buffer (0.2 M, pH 6.6) were added. The mixture was vortexed and incubated for 20 min at 50°C. Then, 500 µL of 10% trichloroacetic acid was added, and 500 µL of the upper layer of the solution was mixed with 100 µL of 0.1% FeCl3 and 500 µL of distilled water. The absorbance of the reducing effect was recorded using a spectrophotometer at 700 nm.

A549 cell line = assay: Anticancer activity, WST-1 assay in A549 cells; conditions: WST-1, 24 h exposure, 6.25-500 μg/ml
[8] = test system: Bacillus subtilis ATCC 6633; assay: Disc diffusion, Bacillus subtilis; conditions: for zone of inhibition at 1000 µg/mL: ATCC6633, 24 h, read-out: inhibitory zone diameter, B1 Bacillus subtilis
[9] = positive control 10 µg disc^−1, disc diameter 5 mm

Chain of hCA I (P00915 whole entry): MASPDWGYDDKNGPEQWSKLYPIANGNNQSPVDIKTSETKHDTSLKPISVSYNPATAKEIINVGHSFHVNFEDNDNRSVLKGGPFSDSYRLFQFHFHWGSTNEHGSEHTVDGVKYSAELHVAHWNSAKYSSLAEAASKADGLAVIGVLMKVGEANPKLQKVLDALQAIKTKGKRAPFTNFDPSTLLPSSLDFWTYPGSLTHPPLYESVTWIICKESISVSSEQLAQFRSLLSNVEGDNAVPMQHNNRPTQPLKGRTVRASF

Row | Compound | zone of inhibition at 1000 µg/mL [3] | zone of inhibition at 1000 µg/mL [4] | IC50 (hCA I) | Ki (hCA I) | IC50 (hCA II) | IC50 ABTS method [5] | ABTS radical scavenging (λ734) [5] | zone of inhibition at 1000 µg/mL [6] | Fe^3+-Fe^2+ reducing (λ700) [7] | zone of inhibition at 1000 µg/mL [8] | Ki (hCA II) | further results
1 | C[C@@H]1[C@H](O)[C@@H](C)/C=C/C=C/CC/C=C/C=C/C=C/C=C/C(O[C@H]2O[C@H](C)[C@@H](O)[C@H](N)[C@@H]2O)CC2O[C@](O)(CC(O)C(O)CCC(O)CC(O)CC(O)CC(=O)O[C@H]1C)CC(O)C2C(=O)O (some centres unmarked) [Nystatin, reference compound] |  |  |  |  |  |  |  |  |  |  |  | inhibitory zone diameter, F2 Yarrowia lipolytica [1, 9]: 15 mm; inhibitory zone diameter, F1 Candida albicans [2, 9]: 18 mm
2 | CCOS(=O)(=O)N1C(=O)c2ccccc2C1(O)c1ccccc1 (centres unmarked) [2a, Ethyl1‐hydroxy‐3‐oxo‐1‐phenylisoindoline‐2‐sulfonate] | 8 mm | 7 mm | 24.3 ± 1.98 nM | 22 ± 9.21 nM | 28.84 ± 0.151 nM | 231.00 µg/mL | 0.835 ± 0.024 | 9 mm | 1.168 ± 0.058 | 7 mm |  | cell proliferation of L929 cells compared with control group (in words) (L929 cells): increased cell proliferation; antioxidant activity (in words) [5]: lowest activity; anticancer activity against A549 cells (in words) (A549 cell line): dose‐dependent anticancer activity; also recorded: demonstrated inhibitory effects at high doses
3 | COc1ccc(O)c(C(C)(C)C)c1 [BHA, reference compound] |  |  |  |  |  | 12.83 µg/mL (≈ 71.2 µM) | 0.201 ± 0.040 |  | 2.625 ± 0.241 |  |  | 
4 | O=C1c2ccccc2C(O)(c2ccccc2)N1S(=O)(=O)OC1CCCCC1 (centres unmarked) [2f, Cyclohexyl1‐hydroxy‐3‐oxo‐1‐phenylisoindoline‐2‐sulfonate] | 22 mm | 24 mm | 11.2 ± 0.291 nM | 16.1 ± 4.14 nM | 27.8 ± 0.17 nM | 27.72 µg/mL | 0.426 ± 0.132 | 25 mm | 1.485 ± 0.156 | 20 mm | 14.9 ± 3.25 nM | antioxidant activity (in words) [5]: highest antioxidant activity; zone of inhibition at 1000 µg/mL ([1]; Yarrowia lipolytica, ATCC20460, 24 h, read-out: inhibitory zone diameter, F2 Yarrowia lipolytica): 16 mm; zone of inhibition at 1000 µg/mL ([2]; Candida albicans, ATCC10231, 24 h, read-out: inhibitory zone diameter, F1 Candida albicans): 19 mm
5 | Cc1cc(C(C)(C)C)c(O)c(C(C)(C)C)c1 [BHT, reference compound] |  |  |  |  |  | 16.11 µg/mL (≈ 73.1 µM) | 0.293 ± 0.094 |  | 2.510 ± 0.111 |  |  | 
6 | Cc1c(C)c2c(c(C)c1O)CC[C@@](C)(CCC[C@H](C)CCC[C@H](C)CCCC(C)C)O2 [α‐Tokoferol, α‐tocopherol, reference compound] |  |  |  |  |  | 18.23 µg/mL (≈ 42.3 µM) | 0.319 ± 0.101 |  | 1.465 ± 0.284 |  |  | 
7 | CCCCOS(=O)(=O)N1C(=O)c2ccccc2C1(O)c1ccccc1 (centres unmarked) [2d, Butyl1‐hydroxy‐3‐oxo‐1‐phenylisoindoline‐2‐sulfonate] | 12 mm | 14 mm | 75.7 ± 1.21 nM | 87.1 ± 35.2 nM | 86.37 ± 0.338 nM | 99.00 µg/mL | 0.719 ± 0.032 | 13 mm | 1.278 ± 0.059 | 12 mm | 251 ± 37.1 nM | cell proliferation of L929 cells compared with control group (in words) (L929 cells): increased cell proliferation
8 | CC(C)OS(=O)(=O)N1C(=O)c2ccccc2C1(O)c1ccccc1 (centres unmarked) [2c, Isopropyl1‐hydroxy‐3‐oxo‐1‐phenylisoindoline‐2‐sulfonate] | 17 mm | 19 mm | 12.6 ± 0.37 nM | 11.5 ± 4.18 nM | 13.02 ± 0.041 nM | 40.76 µg/mL | 0.549 ± 0.049 | 18 mm | 1.323 ± 0.133 | 16 mm | 9.32 ± 2.35 nM | cell proliferation of L929 cells compared with control group (in words) (L929 cells): increased cell proliferation
9 | CC(C)COS(=O)(=O)N1C(=O)c2ccccc2C1(O)c1ccccc1 (centres unmarked) [2e, Isobutyl1‐hydroxy‐3‐oxo‐1‐phenylisoindoline‐2‐sulfonate] | 11 mm | 13 mm | 11.8 ± 0.132 nM | 33.3 ± 15.1 nM | 23.85 ± 0.152 nM | 53.30 µg/mL | 0.624 ± 0.040 | 14 mm | 1.316 ± 0.023 | 10 mm | 37.5 ± 14.7 nM | 
10 | CC1(C)S[C@@H]2[C@H](NC(=O)[C@H](N)c3ccccc3)C(=O)N2[C@H]1C(=O)O [Ampicillin, reference compound] |  |  |  |  |  |  |  |  |  |  |  | zone of inhibition at 10 µg/disc ([3]; ATCC13883, read-out: inhibitory zone diameter, B4 Klebsiella pneumonia): 19 mm; zone of inhibition at 10 µg/disc ([4]; ATCC25923, read-out: inhibitory zone diameter, B2 Staphylococcus aureus): 21 mm; zone of inhibition at 10 µg/disc ([6]; ATCC43895, positive control 10 µg disc^−1, disc diameter 5 mm): 20 mm; zone of inhibition at 10 µg/disc ([8]; ATCC6633, read-out: inhibitory zone diameter, B1 Bacillus subtilis): 18 mm
11 | CCCOS(=O)(=O)N1C(=O)c2ccccc2C1(O)c1ccccc1 (centres unmarked) [2b, Propyl1‐hydroxy‐3‐oxo‐1‐phenylisoindoline‐2‐sulfonate] | 10 mm | 8 mm | 42 ± 1.35 nM | 49.5 ± 12.1 nM | 231 ± 1 nM | 173.25 µg/mL | 0.802 ± 0.072 | 10 mm | 1.260 ± 0.079 | 11 mm | 160 ± 46.6 nM | increase of activity on hCA II with n-propanol (2b) instead of n-butanol (2d) (hCA II; 2b compared with 2d, Ki hCA II): 1.56 fold
